Five compounds from patent US20250115565A1, “SOLID CRYSTALLINE FORMS OF HELICASE-PRIMASE INHIBITORS AND PROCESS OF PREPARATION THEREOF” (INNOVATIVE MOLECULES GMBH, priority 2022, published 2025) can be followed below.

Data set [1] can be described thus: Relative bioavailability of crystalline and salt forms after single oral dose in male mice (Example 6). Type of data set: in vivo. As to conditions: male C57bl/6 mice, single oral dose adjusted to 10 mg/kg free IM-250, suspension in 0.5% HPMC in PBS, blood. The method, then:
The relative bioavailability of crystalline and different salt forms versus suspended IM-250 (derived from a DMSO stock solution) after single dose oral administration in male C57bl/6 mice was examined. Animals (3 per group) had food withdrawn approximately 2 h before administration. The suspension was prepared from a DMSO stock solution, which was diluted 1:20 with 0.5% HPMC in PBS, ultrasonificated and orally administered with a gavage volume of 5 mL/kg. The suspensions of crystalline and different salt forms were prepared directly by adding powder to 0.5% HPMC in PBS, ultrasonificated and orally administered with a gavage volume of 5 mL/kg. Blood samples were taken at 0.5 h, 1 h, 2 h, 5 h, 12 h and 24 h via capillary microsampling and bioanalytics was measured via non-chiral LC-MS. The area-under-curve (AUC0-24 h) and relative bioavailability towards the IM-250 suspension was calculated. The doses for the salts were adjusted to 10 mg/kg free IM-250.

A short description of data set [2]: Physical accelerated stability by XRPD and DSC after temperature and humidity stress (Example 7). Type of data set: physicochemical. The method, then: XRPD analysis was performed on a Bruker D2 Phase diffractometer using a copper anti-cathode, a mono-crystalline silicone sample holder and a position sensitive detector (LynxExe). Powder sample was loaded on a flat mono-crystalline silicone sample holder in a way to avoid preferred orientation and to sensure planarity of the speciem surface. Instrument operation conditions were as follows: ambient temperature and atmosphere; X-ray generator voltage 30 kV and intensity 10 mA; X-ray source: target Copper; emission radiation Kα1=0.15406 nm, Kα2=0.15444 nm, ratio Kα2/Kα1=0.5, KB filter radiation Nickel; Slit: anti-divergence […], Sollers slit 2.5°; Goniometer: angular sector analyzed from 4° to 45° or 4° to 50° for 20, step size 0.07° for 20; Sample holder rotation speed: 30 rpm; Detection: exposition time per step size of goniometer 1 s.
DSC analysis was performed on a Q1000 TA Instruments analyzer. The sample to be analyzed was weighed in an aluminium capsule, which was then crimped and put into the calorimeter oven. Instrument operation conditions were as follows: heater ramp 10° C./min; final temperature 230° C. or 240° C.; carrier gas: nitrogen (Messer “qualité Azote 5.0”) with flow rate of 50 mL/min.
(§1) The chemical and physical accelerated stability of the crystalline material was studied in order to anticipate potential stability issues upon storage or ageing. Crystals were stored for 1 month at 40° C./75% relative humidity (RH) and were also stored for 1 month at 60° C. (and % HR<10% RH). The chemical stability was assessed by HPLC by external standardization versus a freshly prepared (non-stressed) standard solution. For that purpose, six samples (exactly weighted) are stored for each condition: 3 for the 2-weeks stability and 3 for the 4-weeks stability. The physical stability was also assessed by XRPD, DSC analyses by comparing the XRPD and DSC profiles of stressed samples to those of a non-stressed sample. For that purpose, two more samples (one per time point) are stored in each condition (respectively 40° C./75% RH and 60° C.).

Data set [3] can be described thus: Chemical accelerated stability by HPLC after temperature and humidity stress (Example 7). Format: physicochemical. Conditions: for % of unchanged compound left: HPLC UV 285 nm, 3 assays. The procedure: as §1
Data set [4] can be described thus: Relative bioavailability and brain exposure of d3-IM-250 HCl salt versus IM-250 HCl salt in male mice (Example 12). Format: in vivo. As to conditions: mouse, male C57bl/6 mice, single oral dose 10 mg/kg; for Kp at 24 h: brain and whole blood, 24 h post dose, read-out: blood/brain ratio; for AUC(0-t): read-out: AUC0-24; for Cmax: suspension in 0.5% HPMC in PBS; for concentration at 24 h: brain 24 h post dose after PBS perfusion, read-out: brain level @ 24 h. The procedure: Animals (3 per group) had food withdrawn approximately 2 h before administration of 10 mg/kg of the test items. The suspensions were prepared directly by adding powder to 0.5% HPMC in PBS, ultrasonificated and orally administered with a gavage volume of 5 mL/kg. Blood samples (20 μL) were taken at 0.5 h, 1 h, 2 h, 5 h, 12 h and 24 h via capillary microsampling, collected from the tail vein into Li-heparin tubes. The samples were frozen on dry ice within 1-2 min of sampling and stored at −20° C. until LC-MS/MS analysis measured via non-chiral LC-MS. After 24 h post dose, animals were sacrificed and perfused with PBS until PBS was transparent and brain was collected and stored at −20° C. until processed for LC-MS analysis to determine the brain/blood exposure. The peak blood concentration (Cmax), elimination half-life (t1/2), area-under-curve (AUC0-24 h) and blood/brain ratio (as an easily obtainable surrogate parameter for nerve tissue exposure) was determined.

Data set [5] is described as follows: ICH long term and accelerated stability testing (Example 8). Format: physicochemical. The method, then: The long term and accelerated chemical and physical stability was assessed at a Contract Manufacturing Organization. IM-250 HCl salt samples were primary packaged in double PE bags (50 μm, Semadeni, e.g. cat. #2439 with each tag tied with plastic twist). The secondary package was a HDPE-drum closed with a HDPE screw cap (CurTec). The storage conditions were 25±2° C./60±5% relative humidity and 40±2° C./75±5% relative humidity.

The mark [6] stands for this setting: at least 4 weeks after storage at 40° C./75% RH and at 60° C.

Where a name gives a salt, the structure may show the parent alone.

Turning to `Cc1nc(N(C)C(=O)Cc2ccc(-c3cc(F)ccc3F)cc2)sc1[S@@](C)(=N)=O` [suspended IM-250 from DMSO, (S)-2-(2′,5′-Difluoro-[1,1′-biphenyl]-4-yl)-N-methyl-N-(4-methyl-5-(S-methylsulfon-imidoyl)thiazol-2-yl)acetamide], the AUC0-24 h in data set [1] is 66406 ng·h/mL.

For the compound `Cc1nc(N(C)C(=O)Cc2ccc(-c3cc(F)ccc3F)cc2)sc1[S@@](C)(=N)=O` [IM-250 Free base Form I, (S)-2-(2′,5′-Difluoro-[1,1′-biphenyl]-4-yl)-N-methyl-N-(4-methyl-5-(S-methylsulfon-imidoyl)thiazol-2-yl)acetamide], in data set [1], the AUC0-24 h came to 7683 ng·h/mL. In addition, the “DSC Enthalpy transition” value was -77 J/g in data set [2] (40° C./75% RH, 2 wk); -80 J/g in data set [2] (40° C./75% RH, 4 wk); -85 J/g in data set [2] (60° C., 2 wk); -80 J/g in data set [2] (60° C., 4 wk); -83 J/g in data set [2] (no stress, initial analysis). Moreover, the “DSC melting endotherm Temperature Onset” value in data set [2] (40° C./75% RH, 2 wk) was 163 °C; in data set [2] (40° C./75% RH, 4 wk), 163 °C; in data set [2] (60° C., 2 wk), 163 °C; in data set [2] (60° C., 4 wk), 163 °C; in data set [2] (no stress, initial analysis) it was 163 °C. Further, the “DSC melting endotherm Temperature Peak” value was 165 °C in data set [2] (40° C./75% RH, 2 wk); 165 °C in data set [2] (40° C./75% RH, 4 wk); 164 °C in data set [2] (60° C., 2 wk); 165 °C in data set [2] (60° C., 4 wk); 164 °C in data set [2] (no stress, initial analysis). Moreover, the “physical stability as a bulk powder” value in data set [2] (setting [6]) was “physically stable”. The “% of unchanged compound left” value was determined as 99.4% in data set [3] (40° C./75% RH, 2 wk); 100.2% in data set [3] (40° C./75% RH, 4 wk); 99.6% in data set [3] (60° C., 2 wk); 101.4% in data set [3] (60° C., 4 wk). For the same compound, the “chemical stability as a bulk powder” value in data set [3] (setting [6]) is on record as “chemically stable”.

The half-life is the time in which the quantity being followed falls by half. The term Cmax denotes the peak of the concentration-time curve. As for `Cc1nc(N(C)C(=O)Cc2ccc(-c3cc(F)ccc3F)cc2)sc1[S@@](C)(=N)=O` [IM-250 HCl salt], the AUC0-24 h in data set [1] stood at 68289 ng·h/mL. Moreover, in data set [4], the Kp at 24 h worked out at 0.6 ± 0.2 and the concentration at 24 h stood at 175 ng/g. For the same compound, in data set [4] (whole blood, blood), the half-life is 5.7 h, the AUC(0-t) stood at 14400 ng·h/mL and the Cmax is 1210 ng/mL. In data set [5] (6 months 25° C./60% RH), the “Assay (HPLC, % w/w, as-is)” value stood at 97.9%; the “Chiral purity (HPLC area %)” value was 99.9%; the Color and apperance result is listed as “white to off-”; the “Purity (HPLC area %)” value is 99.2%. The “Water content (% w/w)” value in data set [5] (6 months 25° C./60% RH) is listed as 0.08%. Also, in data set [5] (6 months 40° C./75% RH), the “Assay (HPLC, % w/w, as-is)” value stood at 98.6%; the “Chiral purity (HPLC area %)” value is given as 99.9%; the Color and apperance entry is listed as “white to off-”; the “Identity by XRPD” value is recorded as “conforms to”. Also, in data set [5] (6 months 40° C./75% RH), the “Purity (HPLC area %)” value was determined as 99.1% and the “Water content (% w/w)” value is 0.10%. Further, in data set [5] (Initial), the “Assay (HPLC, % w/w, as-is)” value is listed as 98.5%; the “Chiral purity (HPLC area %)” value turned out to be 99.8%; the Color and apperance result is “white to off-”; the “Identity by XRPD” value is given as “conforms to”. Moreover, in data set [5] (Initial), the “Purity (HPLC area %)” value is listed as 99.2% and the “Water content (% w/w)” value is recorded as 0.08%. Also, the “physical stability as a bulk powder” value in data set [5] (at least 6 month after storage at 25° C. and at 40° C.) is reported as “physically stable”.

Consider `[2H]C([2H])([2H])c1nc(N(C)C(=O)Cc2ccc(-c3cc(F)ccc3F)cc2)sc1[S@@](C)(=N)=O` [d3-IM-250 HCl salt], for which, in data set [4], the Kp at 24 h is 0.49 ± 0.1 and the concentration at 24 h worked out at 568 ng/g. In data set [4] (whole blood, blood), the AUC(0-t) came to 28600 ng·h/mL and the peak concentration (Cmax) amounted to 2570 ng/mL.

As to `Cc1nc(N(C)C(=O)Cc2ccc(-c3cc(F)ccc3F)cc2)sc1[S@@](C)(=N)=O` [IM-250 Napadisylate], the AUC0-24 h in data set [1] is 48241 ng·h/mL.
